Patent US6737383B1, “Herbicidal oxadiazolidines” (priority 1999, dated 2004)

Assays:
[1] = test system: winter wheat; test: Test E winter wheat; type: in vivo, Triticum aestivum; details: Postemergence; for Plant response rating, Wheat (winter): 0 to 100 scale
How it was run: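 Postemergence: spray at 1–4 leaf stage, soil 60:40 sandy loam:potting mix; solvent + surfactant formulation; greenhouse 21–28 d; visual injury vs untreated controls.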

[2] = test system: bedstraw; test: Test B pre/postemergence bedstraw; type: in vivo, Galium aparine
How it was run: (§1)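 Herbicidal effect was estimated by eye on a ten-point control scale after plants spent twelve to sixteen days in a greenhouse following soil or foliar treatment. Foliar sprays targeted plants at one to four leaves; all doses were formulated in a non-phytotoxic solvent with surfactant.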

[3] = test system: winter barley; test: Test E winter barley; type: in vivo, Hordeum vulgare; details: Preemergence; for Plant response rating, Barley (winter): 0 to 100 scale where 0 is no effect and 100 is complete control
[4] = test system: winter wheat; test: Test E winter wheat; type: in vivo, Triticum aestivum; details: Preemergence; for Plant response rating, Wheat (winter): 0 to 100 scale where 0 is no effect and 100 is complete control
[5] = test system: green foxtail; test: Test E green foxtail; type: in vivo, Setaria viridis; details: Preemergence; for Plant response rating, Green foxtail: 0 to 100 scale where 0 is no effect and 100 is complete control
[6] = test system: wild oat; test: Test E wild oat; type: in vivo, Avena fatua; details: Preemergence; for Plant response rating, Wild oat: 0 to 100 scale where 0 is no effect and 100 is complete control
[7] = test system: Italian ryegrass; test: Test E Italian ryegrass; type: in vivo, Lolium multiflorum; details: Preemergence; for Plant response rating, I. Ryegrass: 0 to 100 scale where 0 is no effect and 100 is complete control
[8] = test system: blackgrass; test: Test E blackgrass; type: in vivo, Alopecurus myosuroides; details: Preemergence; for Plant response rating, Blackgrass: 0 to 100 scale where 0 is no effect and 100 is complete control
[9] = test system: wheat; test: Test B pre/postemergence wheat; type: in vivo, Triticum aestivum
How it was run: as §1

[10] = test system: duck salad; test: Test B flood test duck salad; type: in vivo, Heteranthera limosa; details: for Ducksalad plant response rating (0 to 10 scale, 0 is no effect, 10 is complete control): Rate 125 g/ha, under heading Pre-emergence
How it was run: (§2)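 Each value is a visual injury score relative to controls, with 10 meaning complete control and 0 no effect. Evaluation took place twelve to sixteen days after the 2-leaf-stage plants were treated and kept in the greenhouse.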

[11] = test system: rice; test: Test B flood test rice; type: in vivo, Oryza sativa; details: for Rice plant response rating (0 to 10 scale, 0 is no effect, 10 is complete control): Rate 125 g/ha, under heading Pre-emergence
How it was run: as §2

[12] = Postemergence, Rate 125 g/ha, scale of 0 to 10 where 0 is no effect and 10 is complete control
[13] = Preemergence, Rate 62 g/ha, scale of 0 to 10 where 0 is no effect and 10 is complete control
[14] = Preemergence, Rate 125 g/ha, 0 is no effect, 10 is complete control
[15] = Preemergence, Rate 250 g/ha, scale 0 to 10, 0 is no effect, 10 is complete control
[16] = Preemergence, Rate 500 g/ha, scale 0 to 10 (0 no effect, 10 complete control)
[17] = Rate 250 g/ha, Postemergence, scale 0 to 10, 0 is no effect, 10 is complete control
[18] = Rate 500 g/ha, Postemergence, scale 0 to 10
[19] = Postemergence, Rate 62 g/ha, scale 0 to 10, 0 is no effect, 10 is complete control
[20] = Postemergence, Rate 250 g/ha, scale of 0 to 10, 0 is no effect, 10 is complete control
[21] = Postemergence, Rate 500 g/ha, scale of 0 to 10 where 0 is no effect and 10 is complete control
[22] = Preemergence, Rate 500 g/ha, scale of 0 to 10 where 0 is no effect and 10 is complete control
[23] = Rate 62 g/ha, flood test species, Pre-emergence, visual evaluation after twelve to sixteen days
[24] = flood test species, visual evaluation after twelve to sixteen days
[25] = Rate 250 g/ha, Pre-emergence (flood test species), scale 0 to 10, 0 is no effect, 10 is complete control
[26] = Rate 500 g/ha, Pre-emergence section of Table B, 0 to 10 scale (0 no effect, 10 complete control)
[27] = Preemergence, Rate 125 g/ha, scale of 0 to 10 where 0 is no effect and 10 is complete control
[28] = Preemergence, Rate 250 g/ha, scale 0 to 10 (0 no effect, 10 complete control)
[29] = Rate 1000 g/ha, Preemergence, scale 0 to 10 (0 no effect, 10 complete control)
[30] = Pre-emergence, Rate 1000 g/ha, scale 0 to 10 (0 no effect, 10 complete control)

## CC1CCCCC1n1c(=O)on(C(=O)N(c2ccccc2)C(C)C)c1=O (stereo not shown) [Compound 162]
[1]; Rate 1000 g/ha, 0 is no effect and 100 is complete control
  Plant response rating, Wheat (winter): 50
[1]; Rate 500 g/ha, 0 no effect, 100 complete control
  Plant response rating, Wheat (winter): 40
[1]; Rate 250 g/ha, 0 to 100 scale where 0 is no effect and 100 is complete control
  Wheat (winter) plant response rating: 30
[2]; [12]
  Bedstraw plant response rating: 2
[2]; [13]
  Bedstraw plant response rating: 0
[2]; [14]
  Bedstraw plant response rating (0 to 10 scale): 0
[2]; [15]
  Bedstraw plant response rating: 0
[2]; [16]
  Bedstraw plant response rating: 0
[2]; Rate 62 g/ha, Postemergence, scale of 0 to 10 where 0 is no effect and 10 is complete control
  Bedstraw plant response rating: 0
[2]; [17]
  Plant response rating, Bedstraw: 3
[2]; [18]
  Bedstraw plant response rating: 6
[3]; Rate 250 g/ha
  Barley (winter) plant response rating (0 to 100 scale): 30
[3]; Rate 500 g/ha
  Plant response rating, Barley (winter): 30
[3]; Rate 1000 g/ha
  Plant response rating, Barley (winter): 40
[4]; Rate 250 g/ha
  Wheat (winter) plant response rating (0 to 100 scale): 30
[4]; Rate 500 g/ha
  Plant response rating, Wheat (winter): 15
[4]; Rate 1000 g/ha
  Plant response rating, Wheat (winter): 40
[5]; Rate 250 g/ha
  Green foxtail plant response rating (0 to 100 scale): 60
[5]; Rate 500 g/ha
  Plant response rating, Green foxtail: 65
[5]; Rate 1000 g/ha
  Plant response rating, Green foxtail: 85
[6]; Rate 250 g/ha
  Wild oat plant response rating (0 to 100 scale): 50
[6]; Rate 500 g/ha
  Plant response rating, Wild oat: 50
[6]; Rate 1000 g/ha
  Plant response rating, Wild oat: 60
[7]; Rate 250 g/ha
  I. Ryegrass plant response rating (0 to 100 scale): 50
[7]; Rate 500 g/ha
  Plant response rating, I. Ryegrass: 65
[7]; Rate 1000 g/ha
  Plant response rating, I. Ryegrass: 70
[8]; Rate 250 g/ha
  Blackgrass plant response rating (0 to 100 scale): 55
[8]; Rate 500 g/ha
  Plant response rating, Blackgrass: 60
[8]; Rate 1000 g/ha
  Plant response rating, Blackgrass: 55
[9]; [13]
  Wheat plant response rating: 0
[9]; [14]
  Wheat plant response rating (0 to 10 scale): 0
[9]; [15]
  Wheat plant response rating: 0
[9]; [16]
  Wheat plant response rating: 0
[9]; [17]
  Plant response rating, Wheat: 0
[9]; [18]
  Wheat plant response rating: 0

## CCC(C)n1c(=O)on(C(=O)N(c2ccccc2)C(C)C)c1=O (stereo not shown) [Compound 612]
[2]; [19]
  Plant response rating, Bedstraw: 3
[2]; [20]
  Bedstraw plant response rating: 6
[2]; [21]
  Plant response rating, Bedstraw: 9
[2]; [22]
  Bedstraw plant response rating: 10
[10]; [23]
  Plant response rating, Ducksalad (0 to 10 scale, 0 is no effect, 10 is complete control): 0
[10]; [24]
  Ducksalad plant response rating (0 to 10 scale, 0 is no effect, 10 is complete control): 0
[10]; [25]
  Ducksalad plant response rating: 0
[10]; [26]
  Ducksalad plant response rating: 0
[11]; [23]
  Plant response rating, Rice (0 to 10 scale, 0 is no effect, 10 is complete control): 0
[11]; [24]
  Rice plant response rating (0 to 10 scale, 0 is no effect, 10 is complete control): 0
[11]; [25]
  Rice plant response rating: 0
[11]; [26]
  Rice plant response rating: 0
[9]; [19]
  Plant response rating, Wheat: 0
[9]; [12]
  Plant response rating, Wheat: 2
[9]; [20]
  Wheat plant response rating: 2
[9]; [21]
  Plant response rating, Wheat: 5
[9]; Preemergence, Rate 62 g/ha, scale 0 to 10 (0 no effect, 10 complete control)
  Wheat plant response rating: 0
[9]; [27]
  Wheat plant response rating: 3
[9]; [22]
  Plant response rating, Wheat: 8

## COC(=O)C(C)n1c(=O)on(C(=O)N(c2ccc(F)cc2)C(C)C)c1=O (stereo not shown) [Compound 616]
[2]; [12]
  Plant response rating, Bedstraw: 0
[2]; [20]
  Bedstraw plant response rating: 0
[2]; [27]
  Bedstraw plant response rating: 0
[2]; [28]
  Plant response rating, Bedstraw: 0
[2]; [22]
  Bedstraw plant response rating: 0
[2]; [29]
  Plant response rating, Bedstraw: 4
[10]; [30]
  Ducksalad plant response rating: 0
[10]; [24]
  Ducksalad plant response rating (0 to 10 scale, 0 is no effect, 10 is complete control): 0
[10]; [25]
  Ducksalad plant response rating: 0
[10]; [26]
  Ducksalad plant response rating: 0
[11]; [30]
  Rice plant response rating: 0
[11]; [24]
  Rice plant response rating (0 to 10 scale, 0 is no effect, 10 is complete control): 0
[11]; [25]
  Rice plant response rating: 0
[11]; [26]
  Rice plant response rating: 0
[9]; [12]
  Plant response rating, Wheat: 0
[9]; [20]
  Wheat plant response rating: 0
[9]; [21]
  Plant response rating, Wheat: 0
[9]; Postemergence, Rate 1000 g/ha, scale 0 to 10 (0 no effect, 10 complete control)
  Wheat plant response rating: 0
[9]; [27]
  Wheat plant response rating: 0
[9]; [28]
  Plant response rating, Wheat: 0
[9]; [22]
  Plant response rating, Wheat: 0
[9]; [29]
  Plant response rating, Wheat: 0
